Data published in patent publication US20240240224A1, “FLUORESCENT D-TYPE AMINO ACID METABOLISM MARKER-BASED METHOD FOR DETECTING ANTIBACTERIAL DRUG SENSITIVITY TEST” (priority 2020, published 2024).
In brackets after ≈: the same amount, converted by molar mass.

How the values were obtained:
Escherichia coli ECO15 [1] = experiment: VITEK drug sensitivity test; type: cell-based; conditions: unit assumed
Escherichia coli ECO922 [2] = experiment: VITEK drug sensitivity test; type: cell-based; conditions: unit assumed
K. pneumoniae Kp6 [3] = experiment: FaAST (FDAA metabolic labeling); type: cell-based, Klebsiella pneumoniae; conditions: unit assumed
In short: (§1)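 Bacteria at OD600=0.05 in CAMHB mixed with antibiotic dilutions plus Cy5-DAA probe at 0.15 mM final, then incubated 2 h in the dark. Cell-wall labeling fluorescence measured by flow cytometry after PBS dilution.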

A. baumannii Ab19 [4] = experiment: FaAST (FDAA metabolic labeling); type: cell-based, Acinetobacter baumannii; conditions: unit assumed
Experimental: (§2) The specific experimental steps are as follows: • 1. Take the colony to be tested that has been cultured overnight on the plate and fully mix it in normal saline to make a uniform bacterial solution. Dilute it into CAMHB medium to make a bacterial solution with OD600=0.05. • 2. Add 45 μl antibiotic solutions to be tested of different concentrations to 96-well plates (see Table 3 for antibiotic concentration gradient settings). • 3. Add 50 μl of bacterial solution prepared in Step 1 to the 96-well plate and mix well. • 4.5 μl of 10 mM Cy5-DAA probe was added to each well (final concentration was 0.15 mM, and its structure was shown in FIG. 1). After mixing, the probe was incubated for 2 hours in the dark. • 5. After dilution with 200 μl PBS solution, the fluorescence intensity of each sample was detected by flow cytometry. The flow detection results are shown in the attached FIG. 4-5, showing the curve of antibiotic concentration gradient and fluorescence intensity, and the MIC (minimum inhibitory concentration) is obtained by referring to this curve.
(§3) Antibiotic resistant strains are shown in bold in the table below.

Pa ATCC 27853 [5] = experiment: BMD susceptibility test; type: cell-based, Pseudomonas aeruginosa; conditions: unit assumed
P. aeruginosa Pa3 [6] = experiment: FaAST (FDAA metabolic labeling); type: cell-based, Pseudomonas aeruginosa; conditions: unit assumed
Experimental: as §2, §3

P. aeruginosa Pa2 [7] = experiment: FaAST (FDAA metabolic labeling); type: cell-based, Pseudomonas aeruginosa; conditions: unit assumed
Experimental: as §2, §3

Pa ATCC 27853 [8] = experiment: FaAST (FDAA metabolic labeling); type: cell-based, Pseudomonas aeruginosa; conditions: unit assumed
Experimental: as §2, §3

P. aeruginosa Pa3 [9] = experiment: BMD susceptibility test; type: cell-based, Pseudomonas aeruginosa; conditions: unit assumed
E. coli Ec13 [10] = experiment: FaAST (FDAA metabolic labeling); type: cell-based, Escherichia coli; conditions: unit assumed
In short: as §1

E.coli 1146 [11] = experiment: FDAA metabolic labeling susceptibility test (Cy5-DAA probe, flow cytometry); type: cell-based, Escherichia coli; conditions: Escherichia coli; E.coli 1146; Cy5-DAA probe, 2 hours; read-out: MIC, FDAA
Experimental: as §2

E.coli 1113 [12] = experiment: as above; type: cell-based, Escherichia coli; conditions: Escherichia coli; E.coli 1113; Cy5-DAA probe, 2 hours; read-out: MIC, FDAA
Experimental: as §2

Ec ATCC 25922 [13] = experiment: BMD susceptibility test; type: cell-based, Escherichia coli; conditions: unit assumed
E.coli 1146 [14] = experiment: Vitek 2 drug sensitivity test; type: cell-based, Escherichia coli; as to Sensibility: key: S: Drug sensitive; R: Drug resistance
P. aeruginosa Pa2 [15] = experiment: BMD susceptibility test; type: cell-based, Pseudomonas aeruginosa; conditions: unit assumed
A. baumannii Ab16 [16] = experiment: BMD susceptibility test; type: cell-based, Acinetobacter baumannii; conditions: unit assumed
Escherichia coli ECO15 [17] = experiment: FaAST with DAA-Cy5-2 probe; type: cell-based; conditions: unit assumed
Experimental: (§4) With reference to the flow chart of the rapid detection method of antimicrobial susceptibility test based on FDAA metabolic markers shown in FIG. 3, FDAA is used for the detection of antimicrobial susceptibility test of alveolar lavage fluid. The specific experimental steps are as follows: • 1. Mix bronchoalveolar lavage fluid (BALF, 10 ml) of patients with hospital acquired pneumonia with cation regulated broth medium (CAMHB, 10 ml) of twice the concentration to prepare the bacterial fluid to be tested. • 2. Add 45 μl antibiotic solutions of different concentrations to the 96-well plate separately (see Table 1 for antibiotic concentration gradient settings). • 3. Add 50 μl of the bacterial solution prepared in step 1 to the 96-well plate and mix well. • 4. Add 5 μl of 10 mM Cy5-DAA probe (final concentration 0.15 mM, see FIG. 1 for its structure) into each well, mix well, and then cultivate in dark for 2 hours. • 5. Add 200 μl PBS solution for dilution, and then use flow cytometry to detect the fluorescence intensity of each sample.
The specific steps are the same as in Example 5. […] The minimum inhibitory concentration of antibiotics was obtained according to the fluorescence signal intensity of flow detection, and the statistical results are shown in Table 7.

K. pneumoniae Kp9 = experiment: BMD susceptibility test; type: cell-based, Klebsiella pneumoniae; conditions: unit assumed
K. pneumoniae Kp6 [18] = experiment: BMD susceptibility test; type: cell-based, Klebsiella pneumoniae; conditions: unit assumed
[19] = test system: bacteria contained in alveolar lavage fluid; experiment: Vitek 2 drug sensitivity test of alveolar lavage fluid; type: cell-based; as to Sensibility: key: S: Drug sensitive; R: Drug resistance
Escherichia coli ECO922 [20] = experiment: FaAST with DAA-Tetra probe; type: cell-based; conditions: unit assumed
Experimental: (§5) The specific experimental steps are as follows: • 1. The tested colonies cultured overnight on the plate were picked and mixed thoroughly in 2× Cation-Adjusted Mueller Hinton Broth medium (2×CAMHB) to make bacterial suspension with turbidity of OD600=0.1. • 2. […] Add 50 μL of the bacterial solution prepared in step 1 (the final concentration of the bacterial solution is OD600=0.05) to the 96-well plate, and add 5 μL of 3 mM DAA-Tetra probe (the final concentration is 0.15 mM), mix well, and incubate in the dark at 37° C. 120 rpm for 2 hours. • 4. After culture, dilute the mixed bacterial solution 10 times with PBS solution, and detect the fluorescence intensity of each sample with flow cytometry. The flow detection result is shown in FIG. 14-19, and the arrow is for the MIC value. The minimum inhibitory concentration of antibiotics was obtained according to the fluorescence signal intensity of flow detection, and the statistical results are shown in Table 6.

E. coli Ec11 [21] = experiment: BMD susceptibility test; type: cell-based, Escherichia coli; conditions: unit assumed
A. baumannii Ab19 [22] = experiment: BMD susceptibility test; type: cell-based, Acinetobacter baumannii; conditions: unit assumed
[23] = test system: bacteria contained in alveolar lavage fluid; experiment: FDAA metabolic labeling susceptibility test of alveolar lavage fluid (Cy5-DAA probe); type: cell-based; conditions: alveolar lavage fluid of patients with hospital acquired pneumonia, 2 hours
Experimental: as §4

E. coli Ec11 [24] = experiment: FaAST (FDAA metabolic labeling); type: cell-based, Escherichia coli; conditions: unit assumed
In short: (§6)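 Bacteria diluted to OD600=0.05 in CAMHB were exposed to an antibiotic concentration series with Cy5-DAA probe […] for 2 h in the dark. Per-sample fluorescence was read by flow cytometry after PBS dilution. MIC was taken from the antibiotic concentration–fluorescence curve.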

Ec ATCC 25922 [25] = experiment: FaAST (FDAA metabolic labeling); type: cell-based, Escherichia coli; conditions: unit assumed
In short: as §6

E.coli 1113 [26] = experiment: Vitek 2 drug sensitivity test; type: cell-based, Escherichia coli; also: key: S: Drug sensitive; R: Drug resistance
E. coli Ec13 [27] = experiment: BMD susceptibility test; type: cell-based, Escherichia coli; conditions: unit assumed
A. baumannii Ab16 [28] = experiment: FaAST (FDAA metabolic labeling); type: cell-based, Acinetobacter baumannii; conditions: unit assumed
Experimental: as §2, with “cytometry.” for “cytometry. The flow detection results are shown in the attached FIG. 4-5, showing the curve of antibiotic concentration gradient and fluorescence intensity, and the MIC (minimum inhibitory concentration) is obtained by referring to this curve.”

[29] = test system: Klebsiella pneumoniae KPN6; experiment: VITEK drug sensitivity test; type: cell-based; conditions: unit assumed
Ec ATCC 25922 [30] = conditions: cited from earlier work
[31] = test system: Klebsiella pneumoniae KPN6; experiment: FaAST with DAA-Tetra probe; type: cell-based; conditions: unit assumed
Experimental: as §5

Pa ATCC 27853 [32] = conditions: cited from earlier work

C[C@@H](O)[C@H]1C(=O)N2C(C(=O)O)=C(SCCN=CN)C[C@H]12 [Imipenem, imipenem]
MIC, VITEK (Escherichia coli ECO15 [1]): 128 µg/mL (≈ 428 µM) | MIC, VITEK (Escherichia coli ECO922 [2]): 1 µg/mL (≈ 3.34 µM) | FaAST (MIC) (K. pneumoniae Kp6 [3]): 1 µg/mL | FaAST (MIC) (A. baumannii Ab19 [4]): 1 µg/mL | BMD (MIC) (Pa ATCC 27853 [5]): 2 µg/mL | FaAST (MIC) (P. aeruginosa Pa3 [6]): 32 µg/mL | FaAST (MIC) (P. aeruginosa Pa2 [7]): 1 µg/mL | FaAST (MIC) (Pa ATCC 27853 [8]): 1 µg/mL | BMD (MIC) (P. aeruginosa Pa3 [9]): 32 µg/mL | FaAST (MIC) (E. coli Ec13 [10]): 128 µg/mL | MIC (E.coli 1146 [11]): 0.5 µg/mL (≈ 1.67 µM) | MIC (E.coli 1113 [12]): ≥ 128 µg/mL | BMD (MIC) (Ec ATCC 25922 [13]): ≤ 0.25 µg/mL | Sensibility (E.coli 1146 [14]): S | MIC (E.coli 1146 [14]; Escherichia coli): ≤ 1 µg/mL | BMD (MIC) (P. aeruginosa Pa2 [15]): 1 µg/mL | BMD (MIC) (A. baumannii Ab16 [16]): 32 µg/mL | MIC, FaAST (Escherichia coli ECO15 [17]): 128 µg/mL (≈ 428 µM) | BMD (MIC) (K. pneumoniae Kp9): 128 µg/mL | BMD (MIC) (K. pneumoniae Kp6 [18]): ≤ 0.25 µg/mL | MIC [19]: ≥ 16 µg/mL | Sensibility [19]: R | MIC, FaAST (Escherichia coli ECO922 [20]): 1 µg/mL (≈ 3.34 µM) | BMD (MIC) (E. coli Ec11 [21]): ≤ 0.25 µg/mL | BMD (MIC) (A. baumannii Ab19 [22]): ≤ 0.25 µg/mL | MIC, FDAA [23]: ≥256 µg/mL | FaAST (MIC) (E. coli Ec11 [24]): 1 µg/mL | FaAST (MIC) (Ec ATCC 25922 [25]): 1 µg/mL | Sensibility (E.coli 1113 [26]): R | BMD (MIC) (E. coli Ec13 [27]): 16 µg/mL | FaAST (MIC) (A. baumannii Ab16 [28]): 64 µg/mL

NCC[C@H](O)C(=O)N[C@@H]1C[C@H](N)[C@@H](O[C@H]2O[C@H](CN)[C@@H](O)[C@H](O)[C@H]2O)[C@H](O)[C@H]1O[C@H]1O[C@H](CO)[C@@H](O)[C@H](N)[C@H]1O [Amikacin]
MIC, VITEK [29]: 0.5 µg/mL (≈ 0.854 µM) | FaAST (MIC) (K. pneumoniae Kp6 [3]): 0.5 µg/mL | FaAST (MIC) (A. baumannii Ab19 [4]): 2 µg/mL | BMD (MIC) (Pa ATCC 27853 [5]): 2 µg/mL | FaAST (MIC) (P. aeruginosa Pa3 [6]): 8 µg/mL | FaAST (MIC) (P. aeruginosa Pa2 [7]): 0.5 µg/mL | FaAST (MIC) (Pa ATCC 27853 [8]): 4 µg/mL | CLSI QC range (Ec ATCC 25922 [30]): 0.5-4^ | BMD (MIC) (P. aeruginosa Pa3 [9]): 4 µg/mL | FaAST (MIC) (E. coli Ec13 [10]): 1 µg/mL | BMD (MIC) (Ec ATCC 25922 [13]): 1 µg/mL | BMD (MIC) (P. aeruginosa Pa2 [15]): 2 µg/mL | BMD (MIC) (K. pneumoniae Kp6 [18]): 0.5 µg/mL | MIC, FaAST [31]: 0.5 µg/mL (≈ 0.854 µM) | BMD (MIC) (E. coli Ec11 [21]): 4 µg/mL | BMD (MIC) (A. baumannii Ab19 [22]): 2 µg/mL | CLSI QC range (Pa ATCC 27853 [32]): 1-4 | FaAST (MIC) (E. coli Ec11 [24]): 8 µg/mL | FaAST (MIC) (Ec ATCC 25922 [25]): 2 µg/mL | BMD (MIC) (E. coli Ec13 [27]): 2 µg/mL
